Measured values from patent US11505556B2, “Halogenated derivatives of morphinans and uses thereof” (Xalud Therapeutics, Inc., priority 2017, dated 2022).
pIC50: −log10 of the molar value. Read-outs that look alike come from different tables or passages of the source.

Key:
[1] = Hepatocyte elimination of parent compound, spread across species; format: in vitro ADME; settings: mouse, rat, dog, monkey, human, hepatocytes; lowest to highest species value; read-out: range of hepatocyte elimination half-life values across species
Protocol: Hepatocyte Elimination: (+)-NTX, AK-17 and XT-203 were incubated with cultured hepatocytes from the species listed in FIG. 9 and Table 4, and samples of the culture supernatant were collected over time. Samples were concentrated by nitrogen drying followed by reconstitution with 40% methanol for LC/MS analysis The data points were analyzed using the WinNonLin pharmacokinetics software package, and a half-life was determined that describes the rate of parent elimination. […].
(§1) In addition to the animal studies presented above in Examples 1-9, the results of in vitro testing of several of the compounds (i.e., XT-203, XT-204, and XT-206 through XT-217) are shown in Table 5 and Table 6. […]. Nine additional compounds had two or fewer off-target hits in the screening. […] These compounds spanned all of the tested N-modification classes. […]. Thus, the medicinal chemistry approach taken in this series of fluorinated compounds can yield low off-target activity and longer metabolic lifetime while preserving TLR4 antagonism. It is appreciated that further development of compounds in this class, using techniques known to those skilled in the art, may yield additional compounds with desirable pharmacologic and toxicologic characteristics.

in vitro [2] = settings: dog, cultured hepatocytes
in vitro [3] = settings: mouse, hepatocytes
[4] = system: TLR4 (LPS-stimulated NO production, BV-2 mouse microglia cell line); test: NO assay: inhibition of LPS-induced NO production in BV-2 microglia (iNOS cellular); format: cell-based; settings: Mus musculus
Excerpt: NO assay: Microglia are the resident cells of the innate immune system in the central nervous system, and TLR4 is primarily expressed by microglia rather than astrocytes or neurons in the CNS. Given this expression profile, the BV-2 mouse microglia cell line was used as the model system of microglia, as these cells recapitulate many of the responses of primary microglia with high fidelity. TLR4 activation induces the downstream production of the inflammatory factor NO, which contributes to the development of neuropathic pain and drug addiction. BV-2 murine microglia were grown in supplemented DMEM (including 10% FBS, 50 unit mL^−1 penicillin, 50 μg·mL^−1 streptomycin). BV-2 cells were detached from the flask by trypsin digestion when ˜80% confluence was reached. Cells were seeded at a density of 4×10^4 cells per well in 96-well plates. After overnight incubation, media was aspirated and changed to DMEM media without FBS. Cells were then treated with LPS (200 ng/ml) and different concentrations of the testing compounds. After 24 h treatment, 100 μL of supernatant media was removed after cells were treated for 24 h and added to flat black 96-well microfluor plates (Thermo Scientific, MA, USA). Subsequently, 10 μL of 2, 3-diaminonaphthalene (0.05 mg·mL^−1 in 0.62 M HCl) was added to each well and incubated for 15 min. The reaction was quenched by addition of 5 μL of 3 M NaOH and the plate was read on a Beckman Coulter DTX880 reader (Fullerton, Calif., USA) with excitation at 360 nm and emission at 430 nm.
N chain NTX: This experimentation involved an in vitro assay where mouse BV2 cells were treated with LPS, which results in the release of nitric oxide (NO). Blockade of TLR4 activity results in reduced NO production. Therefore, IC50 values were determined for test compounds that antagonize TLR4 activity. A series of test compounds were prepared, with different N-alkyl chains replacing the cyclopropyl methyl found in naltrexone. Cell viability was also measured by a standard assay, e.g., measurement of the release of cytoplasm-resident enzymes in the tissue culture supernatant or media to detect cell loss/lysis/rupture. A dose-inhibition curve was generated by testing the TLR4 antagonist compound for the ability to block LPS-stimulated iNOs induction. In FIG. 7, the inhibition levels across a range of doses are graphed, along with a regression curve. The IC50 value—50% inhibition level—is also provided, graphed against the length of the alkyl chain. Note that with longer N-alkyl chain the IC50 was reduced, although cell viability became problematic.
FIGS. 8B to 8D show the results of the inhibition of NO production from LPS-stimulated BV2 cells using the assay described above.

in vitro [5] = settings: rat, cultured hepatocytes
Human hepatocytes = test: Hepatocyte elimination of parent compound; settings: cultured hepatocytes
in vitro [6] = settings: human, cultured hepatocytes
hERG = hERG (Homo sapiens, UniProt Q12809); test: hERG inhibition
Sequence of hERG (Q12809 whole entry): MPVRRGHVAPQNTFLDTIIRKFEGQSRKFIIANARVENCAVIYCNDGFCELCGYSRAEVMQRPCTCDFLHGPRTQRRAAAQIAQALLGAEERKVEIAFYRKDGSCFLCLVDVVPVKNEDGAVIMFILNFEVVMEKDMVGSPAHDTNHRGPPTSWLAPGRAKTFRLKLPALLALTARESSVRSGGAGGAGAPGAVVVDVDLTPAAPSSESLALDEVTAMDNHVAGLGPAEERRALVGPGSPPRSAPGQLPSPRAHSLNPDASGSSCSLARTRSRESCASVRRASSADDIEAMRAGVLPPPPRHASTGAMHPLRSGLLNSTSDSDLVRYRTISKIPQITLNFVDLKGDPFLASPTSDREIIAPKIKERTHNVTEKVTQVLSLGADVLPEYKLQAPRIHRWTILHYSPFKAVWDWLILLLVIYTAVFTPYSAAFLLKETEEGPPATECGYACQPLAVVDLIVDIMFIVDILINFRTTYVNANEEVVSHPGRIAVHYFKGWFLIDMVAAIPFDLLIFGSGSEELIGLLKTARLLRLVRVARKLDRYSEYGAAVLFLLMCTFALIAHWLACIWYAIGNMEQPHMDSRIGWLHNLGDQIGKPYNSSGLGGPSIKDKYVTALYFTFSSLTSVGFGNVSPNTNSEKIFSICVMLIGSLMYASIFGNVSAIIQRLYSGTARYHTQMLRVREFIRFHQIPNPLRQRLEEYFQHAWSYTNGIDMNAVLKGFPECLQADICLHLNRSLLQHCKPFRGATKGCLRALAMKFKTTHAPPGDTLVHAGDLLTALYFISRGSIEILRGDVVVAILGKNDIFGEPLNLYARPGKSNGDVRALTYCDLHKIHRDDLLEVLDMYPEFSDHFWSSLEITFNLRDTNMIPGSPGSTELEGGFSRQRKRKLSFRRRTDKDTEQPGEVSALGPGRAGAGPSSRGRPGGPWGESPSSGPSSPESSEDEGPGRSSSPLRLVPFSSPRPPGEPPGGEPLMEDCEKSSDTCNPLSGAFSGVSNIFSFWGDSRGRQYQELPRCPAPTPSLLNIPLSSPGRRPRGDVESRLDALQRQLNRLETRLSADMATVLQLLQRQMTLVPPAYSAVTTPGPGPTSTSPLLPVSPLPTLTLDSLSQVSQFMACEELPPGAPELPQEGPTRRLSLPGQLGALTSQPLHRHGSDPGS

in vitro [7] = settings: monkey, cultured hepatocytes
[8] = system: off-target screening panel; test: Off-target inhibition screening (whole panel); settings: 10 μM test concentration; hit = inhibition at or above the 50% level
Excerpt: as §1

iNOS = iNOS (Homo sapiens, UniProt P35228); test: iNOS enzyme inhibition; format: biochemical
Sequence of iNOS (P35228 whole entry): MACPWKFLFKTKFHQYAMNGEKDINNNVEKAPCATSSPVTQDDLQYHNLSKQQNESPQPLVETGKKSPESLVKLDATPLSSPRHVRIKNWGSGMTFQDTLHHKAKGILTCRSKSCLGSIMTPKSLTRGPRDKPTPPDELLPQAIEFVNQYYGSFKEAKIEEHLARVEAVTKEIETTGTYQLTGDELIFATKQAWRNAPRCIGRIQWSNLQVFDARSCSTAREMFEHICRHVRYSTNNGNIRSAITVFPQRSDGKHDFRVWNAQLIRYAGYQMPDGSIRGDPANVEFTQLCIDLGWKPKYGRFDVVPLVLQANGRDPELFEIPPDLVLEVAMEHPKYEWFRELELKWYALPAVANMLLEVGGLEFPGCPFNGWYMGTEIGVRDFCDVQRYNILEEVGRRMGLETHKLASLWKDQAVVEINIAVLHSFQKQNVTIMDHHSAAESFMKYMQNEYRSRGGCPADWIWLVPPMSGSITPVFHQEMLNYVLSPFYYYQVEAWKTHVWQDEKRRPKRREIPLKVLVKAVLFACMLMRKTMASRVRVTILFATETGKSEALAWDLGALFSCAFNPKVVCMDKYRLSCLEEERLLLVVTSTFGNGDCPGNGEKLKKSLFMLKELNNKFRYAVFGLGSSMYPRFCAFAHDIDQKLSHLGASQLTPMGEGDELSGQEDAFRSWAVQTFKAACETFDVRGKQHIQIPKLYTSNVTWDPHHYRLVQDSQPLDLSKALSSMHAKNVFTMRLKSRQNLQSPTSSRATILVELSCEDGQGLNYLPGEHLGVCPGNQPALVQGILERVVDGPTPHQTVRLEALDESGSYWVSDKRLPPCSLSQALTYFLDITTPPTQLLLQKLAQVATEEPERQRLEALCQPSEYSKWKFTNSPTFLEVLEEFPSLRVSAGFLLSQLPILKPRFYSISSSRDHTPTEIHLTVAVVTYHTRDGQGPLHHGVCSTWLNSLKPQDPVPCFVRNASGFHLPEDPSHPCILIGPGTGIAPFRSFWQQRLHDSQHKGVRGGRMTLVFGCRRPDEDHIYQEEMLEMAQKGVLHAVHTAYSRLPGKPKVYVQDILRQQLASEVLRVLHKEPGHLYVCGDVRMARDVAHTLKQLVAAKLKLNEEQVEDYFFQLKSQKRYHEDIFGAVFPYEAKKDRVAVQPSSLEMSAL

Adenosine A2A = Adenosine A2A (Homo sapiens, UniProt P29274); test: Off-target screening; format: binding
Sequence of Adenosine A2A (P29274 whole entry): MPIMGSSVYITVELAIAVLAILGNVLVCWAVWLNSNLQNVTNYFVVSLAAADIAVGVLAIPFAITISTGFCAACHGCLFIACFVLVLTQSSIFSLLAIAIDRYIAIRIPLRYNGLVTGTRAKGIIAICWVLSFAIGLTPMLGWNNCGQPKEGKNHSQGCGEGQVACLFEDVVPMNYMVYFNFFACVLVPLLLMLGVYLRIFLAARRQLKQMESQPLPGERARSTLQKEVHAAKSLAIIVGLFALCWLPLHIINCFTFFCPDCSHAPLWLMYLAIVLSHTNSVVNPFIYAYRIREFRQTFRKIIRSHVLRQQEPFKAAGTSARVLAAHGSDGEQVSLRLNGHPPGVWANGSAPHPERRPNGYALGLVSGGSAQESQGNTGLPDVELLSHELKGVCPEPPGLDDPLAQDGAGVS
Excerpt: as §1

Cannabinoid CB1 = Cannabinoid CB1 (Homo sapiens, UniProt P21554); test: Off-target screening; format: binding
Sequence of Cannabinoid CB1 (P21554 whole entry): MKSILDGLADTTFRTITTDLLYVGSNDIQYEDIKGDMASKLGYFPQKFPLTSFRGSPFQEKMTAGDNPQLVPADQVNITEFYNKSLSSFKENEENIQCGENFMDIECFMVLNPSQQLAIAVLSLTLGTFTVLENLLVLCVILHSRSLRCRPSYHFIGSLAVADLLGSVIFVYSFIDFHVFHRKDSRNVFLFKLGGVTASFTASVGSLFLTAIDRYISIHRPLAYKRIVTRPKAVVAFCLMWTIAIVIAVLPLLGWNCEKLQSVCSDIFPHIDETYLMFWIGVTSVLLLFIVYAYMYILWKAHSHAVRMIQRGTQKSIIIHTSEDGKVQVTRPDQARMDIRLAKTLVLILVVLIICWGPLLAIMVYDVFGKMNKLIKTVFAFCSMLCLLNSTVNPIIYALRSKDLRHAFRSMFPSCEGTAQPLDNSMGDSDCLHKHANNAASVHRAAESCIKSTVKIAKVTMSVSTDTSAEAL
Excerpt: as §1

Adrenergic α2A = target: T1, Adrenergic α2A (Homo sapiens, UniProt P08913); test: Off-target screening; format: binding; settings: 10 μM
T1 sequence (P08913 1-465): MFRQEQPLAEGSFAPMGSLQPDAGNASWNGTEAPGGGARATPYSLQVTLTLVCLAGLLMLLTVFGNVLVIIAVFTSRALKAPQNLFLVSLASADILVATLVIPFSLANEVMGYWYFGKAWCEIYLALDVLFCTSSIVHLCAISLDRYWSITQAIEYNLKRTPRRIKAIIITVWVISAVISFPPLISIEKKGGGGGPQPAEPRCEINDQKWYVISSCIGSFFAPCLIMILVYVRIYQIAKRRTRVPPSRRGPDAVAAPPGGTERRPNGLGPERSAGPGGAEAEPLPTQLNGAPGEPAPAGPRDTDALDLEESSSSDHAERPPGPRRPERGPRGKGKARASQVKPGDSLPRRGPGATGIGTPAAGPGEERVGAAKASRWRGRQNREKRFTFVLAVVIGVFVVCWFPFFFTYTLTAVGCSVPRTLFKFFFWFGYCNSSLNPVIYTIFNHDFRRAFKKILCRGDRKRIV
Excerpt: as §1

[9] = system: bone fracture pain, paw withdrawal threshold; test: Mouse bone fracture model, intraperitoneal; format: in vivo
Excerpt: Each group had n=10 mice.

[10] = system: surgical pain (paw incision), paw withdrawal threshold; test: Mouse paw incision model, morphine potentiation
Protocol: Manual testing with von Frey hairs was performed at the times indicated in the graphs. The animals were placed in individual Perspex boxes on a raised metal mesh for at least 40 min before the test. A series of graduated von Frey hairs (0.07, 0.16, 0.4, 0.6, and 1.0 g) were applied to the plantar surface of the left paw, in sequence. Each von Frey hair was applied 10 times on a one-sec-on-one-sec-off protocol, with each hair slightly bent. A paw withdrawal upon this hind-paw stimulation for a given von Frey hair registering 5 responses out of 10 trials was recorded the paw withdrawal threshold (PWT). A baseline PWT was determined each day for 3 days before surgery. […] In addition, the PWT was determined before dosing and 1, 2, and 4 hours after dosing.
In both cases, morphine was dosed at 1 mg/kg IP.

[11] = system: CCI neuropathic pain (mechanical allodynia); test: Rat CCI model, oral and subcutaneous phases (Study R042); format: in vivo; settings: gabapentin 200 mg/kg
Protocol: Rat chronic constriction injury model-Oral and subcutaneous (+)-NTX and XT-203: An efficacy study was conducted in the rat chronic constriction injury (CCI) model (Study R042). The study design comprised two phases. A five-day period of oral (PO) dosing and behavioral testing was followed by a five-day period of subcutaneous (SC) dosing, with a two-day washout period between these periods. Dosing on each day was performed three times a day (TID). Behavioral testing for mechanical allodynia was performed on the first and fifth days of dosing, at three times on those days: before the first dose of the day, 30 minutes after the first dose of the day, and 30 minutes after the second dose of the day. Thus, day 5 testing is designated as pre5.1 (before the first dose of the day), 5.1 (fifth day, after first dose) or 5.2 (fifth day, after second dose). On day 5 of the subcutaneous dosing phase, a second testing period was introduced 60 minutes after the second dose. (+)-NTX (6, 18, and 60 mg/kg) and XT-203. Mechanical allodynia was tested manually, using the Chaplan up-down testing method. The results are shown in FIGS. 10A and 10B, with the oral (PO) phase presented as the first pair of graphs. After the two-day washout, the subcutaneous (SC) phase was carried out with the results shown in the graphs at FIGS. 10C and 10D.
The CCI model was well established in this study, with allodynic response thresholds between 2 and 3 grams (presurgical baseline thresholds at 15 g, not shown). […] This is especially remarkable given the extremely rapid metabolism and pharmacokinetics of (+)-NTX (see FIG. 9). Here, the dampening of efficacy due to lack of significant amounts of parent compound is particularly evident. Thus, the appropriate dose-ranging conditions in animal models should reflect (+)-NTX serum levels during efficacy testing, to match pharmacokinetics with pharmacodynamics. […] Efficacy is only observed after the first dose on day 5. Thus, changes designed to improve compound stability do provide improved efficacy.

[12] = Microglia, Table 6, unit inferred, footnote: Indicator of TL4 antagonism
[13] = LPS (200 ng/ml), 24 h, BV-2 cells, Table 3
[14] = read-out: iNOS enzyme, Table 6, unit inferred

SMILES | half-life [1] [min] | half-life (in vitro [2]) [min] | half-life (in vitro [3]) [min] | pIC50 [4, 12] | pIC50 [4, 13] | half-life (in vitro [5]) [min] | half-life (in vitro [6]) [min] | pIC50 (hERG) | half-life (in vitro [7]) [min] | off-target hits in the screening [8] | pIC50 (iNOS) | pIC50 (iNOS; [14]) | also measured
COc1ccc2c3c1O[C@@H]1C(F)CCC4[C@H](C2)N(C(=O)C2CC2)CC[C@]341 (some centres unmarked) [XT-206] | 14.4 to 120 | 80.8 | 18.3 | < 5.00 | < 5.00 | 14.4 | 120 | < 5.00 | 15.5 | no off-target hits and none | < 5.00 | < 5.00 | parent duration in human hepatocytes relative to XT-203 (Human hepatocytes): longer parent duration than XT-203
COc1ccc2c3c1O[C@@H]1C(F)CCC4[C@H](C2)N(C(=O)Cc2ccccc2)CC[C@]341 (some centres unmarked) [XT-211] | – | 19.1 | 19 | < 5.00 | < 5.00 | 11.9 | 32.5 | < 5.00 | 12.9 | no off-target hits and none | – | – | –
COc1ccc2c3c1O[C@@H]1C(F)CCC4[C@H](C2)N(S(=O)(=O)c2ccccc2)CC[C@]341 (some centres unmarked) [XT-208] | 8.7 to 19.7 | 14.6 | 10.9 | < 5.00 | < 5.00 | 12.7 | 19.7 | < 5.00 | 8.7 | two off-target hits | < 5.00 | < 5.00 | inhibition at 10 µM (Adenosine A2A): 64%; inhibition at 10 µM (Cannabinoid CB1): 54%
COc1ccc2c3c1O[C@@H]1C(F)CCC4[C@H](C2)N(C2CC2)CC[C@]341 (some centres unmarked) [XT-214] | – | 37.7 | 18.7 | < 5.00 | < 5.00 | 11.8 | 52.9 | < 5.00 | 14.1 | one off-target hit | – | – | inhibition at 10 µM (Adrenergic α2A): 51%
COc1ccc2c3c1O[C@@H]1C(F)CCC4[C@H](C2)N(C(=O)c2ccccc2)CC[C@]341 (some centres unmarked) [XT-207] | – | 39.8 | 22.4 | < 5.00 | < 5.00 | 11.6 | 37.4 | < 5.00 | 12.4 | no off-target hits and none | < 5.00 | < 5.00 | –
CN1CC[C@]23c4c5ccc(O)c4O[C@H]2[C@@H](O)C=C[C@H]3[C@H]1C5 [Morphine, morphine] | – | – | – | – | – | – | – | – | – | – | – | – | effect on PWT in mouse fracture pain model ([9]; IP, morphine 1, 2, 3, 5 mg/kg, XT-203 6, 10, 18, 30 mg/kg, (+)-NTX 6, 18, 30, 60 mg/kg, dose-dependent): increased the PWT; behaviour observed at 5 mg/kg ([9]; mouse fracture model, 5 mg/kg IP, 1 hour after dosing, gone from two hours onward): some mice showing walking anti-clockwise; PWT, 2 hours after dosing ([10]; morphine 1 mg/kg IP alone): 0.11 ± 0.033 g; PWT, 4 hours after dosing ([10]; morphine 1 mg/kg IP alone): 0.10 ± 0.014 g; PWT, 1 hour after dosing ([10]; morphine 1 mg/kg IP alone, baseline 0.11±0.015 g): 0.20 ± 0.046 g; adverse effects during observation ([10]; morphine dose groups): No significant adverse effects
COc1ccc2c3c1O[C@@H]1C(F)CCC4[C@H](C2)N(S(=O)(=O)C2CC2)CC[C@]341 (some centres unmarked) [XT-212] | – | 86.4 | 19.8 | < 5.00 | < 5.00 | 14.4 | 61.2 | < 5.00 | 21.2 | no off-target hits and none | – | – | parent duration in human hepatocytes relative to XT-203 (Human hepatocytes): longer parent duration than XT-203
NCC1(CC(=O)O)CCCCC1 [gabapentin, reference compound] | – | – | – | – | – | – | – | – | – | – | – | – | reversal of mechanical allodynia, positive control [11]: reversals of allodynia
COc1ccc2c3c1O[C@@H]1C(F)CCC4[C@H](C2)N(S(=O)(=O)Cc2ccccc2)CC[C@]341 (some centres unmarked) [XT-217] | 9.2 to 14.1 | 9.7 | 12.6 | < 5.00 | < 5.00 | 10.2 | 14.1 | < 5.00 | 9.2 | two off-target hits | – | – | inhibition at 10 µM (Adenosine A2A): 61%; inhibition at 10 µM (Cannabinoid CB1): 56%
